From PubChem BioAssay (NCI)
“And” between values parts separate entries of the source, which are not always exact repeats. Identical values can stand only once.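 Cells were grown in 96-well plates and exposed to each compound for 48 hours at five concentrations; endpoints were interpolated linearly between bracketing concentrations, or set to the highest concentration if not reached. Abbreviation: GI50, concentration required for 50% inhibition of growth. At the TGI there is no net growth.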

Legend:
Assay in all cases: NCI tumour cell line growth inhibition, 48 h
BT-549 breast = system: BT-549 breast
HOP-62 NSCLC = system: HOP-62 NSCLC
LOX IMVI melanoma = system: LOX IMVI melanoma
MCF7 breast = system: MCF7 breast
MDA-MB-231 breast = system: MDA-MB-231 breast
OVCAR-5 ovarian = system: OVCAR-5 ovarian
SF-539 CNS = system: SF-539 CNS
SK-MEL-2 melanoma = system: SK-MEL-2 melanoma
SK-MEL-5 melanoma = system: SK-MEL-5 melanoma
SK-OV-3 ovarian = system: SK-OV-3 ovarian

Structure (SMILES) | GI50 (BT-549 breast) [µM] | TGI (BT-549 breast) [µM] | GI50 (HOP-62 NSCLC) [µM] | TGI (HOP-62 NSCLC) | GI50 (LOX IMVI melanoma) [µM] | TGI (LOX IMVI melanoma) [µM] | GI50 (MCF7 breast) [µM] | TGI (MCF7 breast) [µM] | GI50 (MDA-MB-231 breast) [µM] | TGI (MDA-MB-231 breast) [µM] | GI50 (OVCAR-5 ovarian) [µM] | TGI (OVCAR-5 ovarian) | GI50 (SF-539 CNS) [µM] | TGI (SF-539 CNS) | GI50 (SK-MEL-2 melanoma) [µM] | TGI (SK-MEL-2 melanoma) [µM] | GI50 (SK-MEL-5 melanoma) [µM] | TGI (SK-MEL-5 melanoma) [µM] | GI50 (SK-OV-3 ovarian) [µM] | TGI (SK-OV-3 ovarian)
COc1ccc(/C=N/NC(=O)c2cccc3cc[nH]c23)cc1O | 12.2 | > 78.8 | 11.2 | > 100 µM | 1.3 | > 100 | 0.63 | > 100 | 0.685 | > 35 | > 54.6 | > 100 µM | 1.85 | > 100 µM | 18.9 | > 100 | 1.27 | > 80.7 | 9.87 | > 100 µM
O=C(O)c1ccc2c(c1C(=O)O)C(=O)OC2(c1ccc(O)cc1)c1ccc(O)cc1 | – | > 100 | – | > 100 µM | – | > 100 | – | > 100 | – | > 100 | – | > 100 µM | – | > 100 µM | – | > 100 | – | > 100 | – | > 100 µM
O=C(CCCSc1nc(-c2ccccc2)cc(-c2ccccc2)n1)NO | 2.66 | 17 | 0.671 | 4.4 µM | 2.26 | 5.47 | 2.1 | 14.3 | 1.99 | 7.72 | 1.37 | 5.64 µM | 1.92 | 7.09 µM | 2.35 | 12.6 | 1.41 | 3.17 | 1.94 | 5.57 µM
CCC(=C/[C@H](C)C/C=C/C(C)=C/[C@@H](C)C(=O)[C@@H](C)[C@H](O)[C@@H](C)CC)/C=C/[C@H]1OC(=O)C=C[C@@H]1C | < 0.01 | 0.429 | < 0.01 | 1.01 µM | < 0.01 | 1.23 | < 0.01 | 1.26 | < 0.01 | 2.18 | < 0.01 | – | < 0.01 | < 0.01 µM | < 0.01 | – | < 0.01 | 0.0342 | < 0.035 | 13.4 µM
CC1=C2C(=C[C@@](C)(CO)[C@@H]2O)C(=O)[C@](C)(O)C12CC2 | – | 0.0518 | – | 0.0263 µM and 0.0432 µM | – | 0.0376 | – | 0.0687 | 0.503 | – | – | 0.0664 µM and 0.0689 µM | – | 0.0181 µM and 0.0175 µM | – | 0.0297 | – | 0.0183 | – | 0.0302 µM and 0.0394 µM
CCCOc1cc2ccccc2cc1C(=O)Nc1nc(N)c2c(ccc3nccc32)[nH]1 | 0.0998 | 2.11 | 0.0798 | 2.69 µM | 0.0511 | 2.02 | 0.0459 | 1.5 | 1.06 | 2.85 | 0.911 | 2.98 µM | 0.0538 | 1.04 µM | 0.0368 | 1.32 | 0.0413 | 1.04 | 0.0591 | 2.36 µM
Cn1ccc2c3c(Oc4ccc(NC(N)=O)cc4)ccnc3ccc21 | > 100 | > 100 | > 100 | > 100 µM | > 100 | > 100 | > 100 | > 100 | > 100 | > 100 | > 100 | > 100 µM | > 100 | > 100 µM | > 100 | > 100 | 20.7 | > 100 | > 100 | > 100 µM
Nc1n[nH]c2cccc(C#Cc3cccc(C(=O)Nc4ccc(CN5CCOCC5)c(C(F)(F)F)c4)c3)c12 | 2.14 | 6.03 | 2.88 | 10.1 µM | 1.67 | 4.02 | 2.41 | 10.3 | 1.3 | 4.7 | 2.52 | 19.8 µM | 1.05 | 3.47 µM | 2.07 | 5.81 | 1.4 | 3.26 | 4 | 17.5 µM
O=C(O)c1nc2nc(Cl)c(Cl)nc2[nH]1 | – | > 100 | – | > 100 µM | – | > 100 | – | > 100 | – | > 100 | – | > 100 µM | – | > 100 µM | – | > 100 | – | > 100 | – | > 100 µM
O=C(/C=C/c1ccc(O)cc1)c1ccc(O)cc1 | – | > 75.3 | – | 49.1 µM | – | 28.1 | – | > 100 | – | > 100 | – | > 76.3 µM | – | 54.2 µM | – | 50 | – | 44.2 | – | > 100 µM
CN(C)CC1CC/C(=C\c2ccc(O)cc2)C1=O (stereo not drawn) | – | 3.73 | – | 33.6 µM | – | 5.51 | – | 4.56 | – | 9.22 | – | 31.6 µM | – | 17.1 µM | – | 21.1 | – | 20.4 | – | 32.3 µM
CCOC(=O)C1=C(C)N(c2ccc(F)cc2F)[C@]2(C#N)C(O)=C(Cl)C(Cl)=C(O)[C@]12C#N | > 100 | > 100 | > 100 | > 100 µM | > 100 | > 100 | > 100 | > 100 | > 100 | > 100 | 20.5 | > 100 µM | > 100 | > 100 µM | > 100 | > 100 | > 100 | > 100 | > 100 | > 100 µM
Nc1ccccc1SC(CC(=O)c1ccccc1)c1cccc([N+](=O)[O-])c1 (stereo not drawn) | 17 | 30.9 | 15.5 | 28.9 µM | 1.99 | 4.07 | 2.6 | 18 | 14.4 | 28.3 | 17.4 | 32.2 µM | 16.8 | 30.7 µM | 20.6 | 35.8 | 15.4 | 29 | 18.1 | 32 µM
C=C1C(=O)O[C@H]2[C@H]1CC/C(COC(=O)NCc1ccc(Cn3c(=O)sn(-c4ccc(OC)cc4)c3=O)cc1)=C\CC[C@@]1(C)O[C@@H]21 | 4.37 | 16.3 | 13.2 | 26.9 µM | 1.73 | 3.12 | 1.77 | 3.63 | 1.97 | 4.11 | 2.06 | 4.81 µM | 1.96 | 4.15 µM | 3.19 | 9.46 | 12 | 24.8 | 14.4 | 27.4 µM
